Some test systems named below: OVCAR-3 ovarian; M14 melanoma; DMS 273 small cell lung; KM20L2 colon; CCRF-CEM leukemia; DMS 114 small cell lung; OVCAR-8 ovarian; HOP-18 NSCLC; BT-549 breast; DLD-1 colon.
Common to all, as to assay: NCI anticancer screen, dose series, 48 h

Values joined by “and” are separate entries in the source; they are usually repeats but may differ in a detail not shown here. Equal values may be shown once.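 Results reflect a 48-hour exposure of cells in 96-well plates to compound at five concentrations. GI50 marks 50% less growth. TGI denotes the concentration required for complete inhibition of growth.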

`CC(=O)Oc1ccc(C(c2ccc(OC(C)=O)cc2)c2ccccn2)cc1`: the GI50 in the assay with OVCAR-3 ovarian was 9.94 µM; with M14 melanoma it was 56.6 µM; with CCRF-CEM leukemia, 43 µM; with OVCAR-8 ovarian, 21.8 µM; in the assay with BT-549 breast, 0.313 µM. Besides, the TGI in the assay on OVCAR-3 ovarian was 98.9 µM and 23.2 µM; with M14 melanoma it was greater than 100 µM; in the assay with DMS 273 small cell lung it was greater than 100 µM; with KM20L2 colon, greater than 100 µM; in the assay on CCRF-CEM leukemia it was greater than 100 µM; in the assay with DMS 114 small cell lung, greater than 68.4 µM. The TGI in the assay on OVCAR-8 ovarian, in the assay on HOP-18 NSCLC and with DLD-1 colon was greater than 100 µM throughout.
Take `Cc1cccc(C(C)(C)C)c1NC(=O)CC1Sc2ccccc2NC1=O` (stereo not drawn): the TGI was greater than 100 µM with OVCAR-3 ovarian; greater than 100 µM in the assay on M14 melanoma; greater than 100 µM in the assay with DMS 273 small cell lung; greater than 100 µM with KM20L2 colon; greater than 100 µM in the assay on CCRF-CEM leukemia; 83 µM with DMS 114 small cell lung. Besides, the TGI with OVCAR-8 ovarian, in the assay on HOP-18 NSCLC and in the assay on DLD-1 colon was greater than 100 µM each time.

The record behind these values is PubChem BioAssay (NCI).
